How the values were obtained:
[1] = system: constitutive and inducible NO synthase (cNO and iNO respectively), HSP70, and NF-kappa b-p65 factor; assay: Western blot of signal molecules from ulcer edge in the rat gastric ulcer model with Helicobacter pylori; type: in vivo, Sprague Dawley rats; conditions: 7th day from ulcer induction; doses of 1 µg to 10 µg per kg of body weight daily for 5 days
Protocol: (§1) The study was carried out on 90 male Sprague Dawley rats (180-220 g) randomly subdivided into 9 groups (10 animals per group): • Group 1 - intact rats (saline solution) • Group 2 - modeled ulcer + saline solution • Group 3 (6 subgroups) - modeled ulcer + H-Glu-Asp-Gly-OH • Group 4 - modeled ulcer + Klacid antibiotic
(§2) Ulcer was modeled by three-time administration (in 4 hours) in the rat stomach of cysteamine-HCL (Aldrich, Milwannee, WI) by means of a probe in the dose of 25 mg per 100 g of body weight. The ulcer, approximately 28 mm^2 in size, appeared at the boundary between antral and fundal segments of the stomach 12 hours after the last administration. Simultaneously with the first administration of cysteamine-HCL a Helicobacter pylori culture (Curtin Matheson Scientific Inc, strain Cag J117, 100 microbial cells) was administered in the rat stomach through the same probe.
A means on the basis of the pharmaceutical composition comprising the studied peptide H-Glu-Asp-Gly-OH was administered subcutaneously in the dose of 1 µg per kg of animal body weight (group 3a), 2,5 µg per kg of body weight (group 3b) and 10 µg per kg of body weight (group 3c) in 0,5 ml of saline solution daily, for 5 days from the occurrence of the stomach ulcer. […]

[2] = system: modeled ulcer; assay: Morphology study of the induced gastric ulcer (cysteamine-HCL + Helicobacter pylori); type: in vivo, Sprague Dawley rats
Protocol: as §1, §2
(§3) A means on the basis of the pharmaceutical composition comprising the studied peptide H-Glu-Asp-Gly-OH was administered subcutaneously in the dose of 1 µg per kg of animal body weight (group 3a), 2,5 µg per kg of body weight (group 3b) and 10 µg per kg of body weight (group 3c) in 0,5 ml of saline solution daily, for 5 days from the occurrence of the stomach ulcer.
The means on the basis of the pharmaceutical composition comprising the studied peptide H-Glu-Asp-Gly-OH was administered intragastrically (through a probe) in the dose of 1 µg per kg of animal body weight (group 3d), 2,5 µg per kg of body weight (group 3e) and 10 µg per kg of body weight (group 3f) in 0,5 ml of saline solution daily, for 5 days from the occurrence of the stomach ulcer.
Antibiotic Klacid (clarithromycin, Abbott) was administered intramuscularly in the dose of 10 mg in 1 ml of saline solution daily for 5 days from the occurrence of the stomach ulcer.
Material for study was taken from ulcer edge on the 7th day (for western blot assay and polymerase chain reaction in real time - RT-PCR), as well as on the 7th, 15th and 21st day for morphology study and confocal microscopy.
For a morphology study, pieces of gastric mucous membrane from the ulcer edge were fixed in 10% neutral formalin (pH 7.2), then the material was dried out in a Leica TP1020 automatic station (Leica) and covered with paraffin. 5 µm thick paraffin slices were placed on object plates covered with a poly-L-lysine film (Sigma). For a visual study the slices were stained with hematoxylin and eosin, as well as with picrofuxin by the van Gison method.

[3] = system: gastric epithelial cell mitochondria; assay: Mitochondrial GFP expression in gastric epithelium after ulcer induction (confocal microscopy, in vivo study); design: species or system Sprague Dawley rats; conditions: both methods, three doses
Protocol: as §1, §2, §3
The means on the basis of the pharmaceutical composition comprising the studied peptide H-Glu-Asp-Gly-OH was administered intragastrically (through a probe) in the dose of 1 µg per kg of animal body weight (group 3d), 2,5 µg per kg of body weight (group 3e) and 10 µg per kg of body weight (group 3f) in 0,5 ml of saline solution daily, for 5 days from the occurrence of the stomach ulcer. […]
The status of isolated mitochondria was assessed using immunofluorescent confocal laser microscopy. […]
Confocal microscopy of mitochondria with optical density evaluation was carried out in an inverted confocal microscope Olympus Fluoview CM FV300-IX70 using an apochromatic lens 606 UPlan (Olympus). A 488 nm excitation wave of argon laser was used in each chamber to specify mito-GFP fluorescence that verifies the structure of mitochondria.

[4] = Subacute toxicity study, 90 days; type: in vivo, white mongrel male rats; conditions: rats, daily for 90 days, 1 µg/kg, 0,1 mg/kg, doses exceed the therapeutic one by 100-1000 times
Protocol: General toxicity of peptide H-Glu-Asp-Gly-OH was studied in accordance with the requirements of "Manual for Experimental (Pre-Clinical) Study of New Pharmacological Substances" (2000): acute toxicity in case of a single administration of the preparation, as well as subacute and chronic toxicity in case of a long-term administration of the peptide.
Subacute toxicity study was carried out on 64 white mongrel male rats with body weight 180-220 g. Experimental animals received the preparation daily, once a day for 90 days in the doses of 1 µg/kg, 0,1 mg/kg, 1 mg/kg in 0,5 ml of sterile 0,9% NaCl solution. Control animals were treated with sterile 0,9% NaCl solution in the same volume. Before the administration of the preparation, as well as on the 30th, 60th and 90th day after the beginning of the administration of the preparation peripheral blood morphology and properties were studied in the animals. Upon completion of the experiment biochemical and coagulology indices of the blood were evaluated.

glutamyl-aspartyl-glycine [H-Glu-Asp-Gly-OH]
level of production of signal molecules (both NO synthase forms, HSP70, NF kappa b-p65) in the mucous membrane of the edge of the ulcer [1]: comparable with commonly normal indices | ulcer pathomorphosis, 7th day ([2]; 7th day after ulcer induction, treatment daily for 5 days, peptide 1, 2,5, 10 µg/kg subcutaneously or intragastrically, Klacid 10 mg intramuscularly): a decrease both in the area of the ulcerous lesion and in its depth was observed | ulcer pathomorphosis, 15th day ([2]; 15th day after ulcer induction, treatment daily for 5 days, peptide 1, 2,5, 10 µg/kg subcutaneously or intragastrically, Klacid 10 mg intramuscularly): a significant decrease in ulcerous lesion area and depth was observed | ulcer pathomorphosis, 21st day ([2]; 21st day after ulcer induction, treatment daily for 5 days, peptide both methods of administration and three dosages, Klacid 10 mg intramuscularly): no ulcerous lesions were macroscopically observed | pathomorphosis of an induced gastric ulcer (Fig. 12 C) ([2]; 21st day, peptide dose 2,5 µg/kg): complete epithelization of the ulcer | delay of epithelialization of the ulcerous lesion compared to higher doses ([2]; dose 1,0 µg/kg (Groups 3a and 3d) versus 2,5 µg/kg and 10 µg/kg): 2 to 3 days | mitochondrial GFP expression (optical density), 7th day ([3]; 7th day after ulcer induction, intact 3.12±0.22, ulcer 0.54±0.02): 2.86±0.21 conv. units | mitochondrial GFP expression (optical density), 15th day ([3]; 15th day after ulcer induction, intact 3.17±0.18, ulcer 0.87±0.04): 3.03±0.16 conv. units | mitochondrial GFP expression (optical density), 21st day ([3]; 21st day after ulcer induction, intact 3.19±0.18, ulcer 1.67±0.09): 3.16±0.18 conv. units | subacute toxicity [4]: no side effects
